Test results as given in patent US20050004200A1, “Pyrazole compounds as integrin receptor antagonists derivatives” (Pharmacia Corporation, priority 2002, published 2005).

Test: not given
Conditions: in vivo

Molecule | Rat AUC-PO/dose
3-(1,3-benzodioxol-5-yl)-4-[5-[2-(1-methyl-1,2,3,4-tetrahydropyrido[2,3-b]pyrazin-6-yl)ethoxy]-1-(2,2,2-trifluoroethyl)-1H-pyrazol-3-yl]butanoic acid [Example 27] | 2 µg·h/mL/mg/kg

Test: plasma level upon oral dosing (AUC-PO)
Conditions: plasma AUC normalised to dose

Molecule | Rat AUC-PO/dose
Cn1nc(CC(CC(=O)O)c2ccc3c(c2)OCO3)cc1OCCc1ccc2c(n1)NCCC2 (centres unmarked) [Example 1, 3-(1,3-benzodioxol-5-yl)-4-{1-methyl-5-[2-(5,6,7,8-tetrahydro-1,8-naphthyridin-2-yl)ethoxy]-1H-pyrazol-3-yl}butanoic acid] | 0.9 µg·h/mL/mg/kg
Cn1nc(CC(CC(=O)O)c2cnc(-c3ccc(Cl)cc3)s2)cc1OCCc1ccc2c(n1)NCCC2 (centres unmarked) [Example 2, 3-[2-(4-chlorophenyl)-1,3-thiazol-5-yl]-4-{1-methyl-5-[2-(5,6,7,8-tetrahydro-1,8-naphthyridin-2-yl)ethoxy]-1H-pyrazol-3-yl}butanoic acid] | 1 µg·h/mL/mg/kg
Cn1nc(CC(CC(=O)O)c2ccc3c(c2)OCO3)cc1SCCc1ccc2c(n1)NCCC2 (centres unmarked) [Example 3, 3-(1,3-benzodioxol-5-yl)-4-(1-methyl-5-{[2-(5,6,7,8-tetrahydro-1,8-naphthyridin-2-yl)ethyl]thio}-1H-pyrazol-3-yl)butanoic acid] | 2.2 µg·h/mL/mg/kg
Cn1nc(CC(CC(=O)O)c2ccc3c(c2)OCO3)cc1S(=O)(=O)CCc1ccc2c(n1)NCCC2 (centres unmarked) [Example 4, 3-(1,3-benzodioxol-5-yl)-4-(1-methyl-5-{[2-(5,6,7,8-tetrahydro-1,8-naphthyridin-2-yl)ethyl]sulfonyl}-1H-pyrazol-3-yl)butanoic acid] | 0.7 µg·h/mL/mg/kg
Cl.Cn1nc(CC(CC(=O)O)c2cnc(C3CC3)s2)cc1OCCc1ccc2c(n1)NCCC2 (centres unmarked) [Example 6, 3-(2-cyclopropyl-1,3-thiazol-5-yl)-4-{1-methyl-5-[2-(5,6,7,8-tetrahydro-1,8-naphthyridin-2-yl)ethoxy]-1H-pyrazol-3-yl}butanoic acid] | 1.1 µg·h/mL/mg/kg
COc1ccc(C(CC(=O)O)Cc2cc(OCCc3ccc4c(n3)NCCN4C)n(C)n2)cn1 (centres unmarked) [Example 7, 3-(6-methoxypyridin-3-yl)-4-{1-methyl-5-[2-(1-methyl-1,2,3,4-tetrahydropyrido[2,3-b]pyrazin-6-yl)ethoxy]-1H-pyrazol-3-yl}butanoic acid] | 0.8 µg·h/mL/mg/kg
CNc1cccc(CCOc2cc(CC(CC(=O)O)c3ccc4c(c3)OCO4)nn2C)n1 (centres unmarked) [Example 8, 3-(1,3-benzodioxol-5-yl)-4-(1-methyl-5-{2-[6-(methylamino)pyridin-2-yl]ethoxy}-1H-pyrazol-3-yl)butanoic acid] | 0.7 µg·h/mL/mg/kg
O=C(O)CC(Cc1cc(OCCc2ccc3c(n2)NCCC3)n(-c2ccccc2)n1)c1ccc2c(c1)OCO2 (centres unmarked) [Example 21, 3-(1,3-benzodioxol-5-yl)-4-{1-phenyl-5-[2-(5,6,7,8-tetrahydro-1,8-naphthyridin-2-yl)ethoxy]-1H-pyrazol-3-yl}butanoic acid] | 1.7 µg·h/mL/mg/kg
COc1ccc(C(CC(=O)O)Cc2cc(OCCc3ccc4c(n3)NCCC4)n(CC(F)(F)F)n2)cn1 (centres unmarked) [Example 23, 3-(6-methoxypyridin-3-yl)-4-[5-[2-(5,6,7,8-tetrahydro-1,8-naphthyridin-2-yl)ethoxy]-1-(2,2,2-trifluoroethyl)-1H-pyrazol-3-yl]butanoic acid] | 0.8 µg·h/mL/mg/kg
Cn1nc(CC(CC(=O)O)c2ccc3c(c2)OCO3)cc1OCCc1ccc2c(n1)NCCN2 (centres unmarked) [Example 25, 3-(1,3-benzodioxol-5-yl)-4-{1-methyl-5-[2-(1,2,3,4-tetrahydropyrido[2,3-b]pyrazin-6-yl)ethoxy]-1H-pyrazol-3-yl}butanoic acid] | 0.4 µg·h/mL/mg/kg
O=C(O)CC(Cc1cc(OCCc2ccc3c(n2)NCCN3)n(CC(F)(F)F)n1)c1ccc2c(c1)OCO2 (centres unmarked) [Example 26, 3-(1,3-benzodioxol-5-yl)-4-[5-[2-(1,2,3,4-tetrahydropyrido[2,3-b]pyrazin-6-yl)ethoxy]-1-(2,2,2-trifluoroethyl)-1H-pyrazol-3-yl]butanoic acid] | 0.9 µg·h/mL/mg/kg
CN1CCNc2nc(CCOc3cc(CC(CC(=O)O)c4ccc5c(c4)OCO5)nn3C)ccc21 (centres unmarked) [Example 31, 3-(1,3-benzodioxol-5-yl)-4-{1-methyl-5-[2-(1-methyl-1,2,3,4-tetrahydropyrido[2,3-b]pyrazin-6-yl)ethoxy]-1H-pyrazol-3-yl}butanoic acid] | 1.9 µg·h/mL/mg/kg
Cc1cc(CCOc2cc(CC(CC(=O)O)c3ccc4c(c3)OCO4)nn2C)nc2c1CCCN2 (centres unmarked) [Example 32, 3-(1,3-Benzodioxol-5-yl)-4-{1-methyl-5-[2-(4-methyl-5,6,7,8-tetrahydro-1,8-naphthyridin-2-yl)ethoxy]-1H-pyrazol-3-yl}butanoic acid] | 2.2 µg·h/mL/mg/kg
